Read-outs that look alike come from different tables or passages of the source.
Key:
[1] = Rat pharmacokinetic studies of prodrug and released riluzole (IV or oral); format: in vivo, Sprague-Dawley rats; details: rat, plasma, fasted male Sprague Dawley rats; for clearance: read-out: Compound of the disclosure Cl (converted); for Vd: read-out: Compound of the disclosure Vss; for half-life: read-out: Compound of the disclosure t1/2 (converted)
Experimental: Rat Pharmacokinetic Studies of the Compounds of the Disclosure:
Blood samples were collected at pre-determined time points including a 0 h time point and usually between 7 and 8 additional time points not exceeding a 24 h period.
Plasma samples were extracted and analyzed using the methods described in Plasma Sample Extraction and Analysis. All data are expressed as ng/mL of the free base. Samples that were below the limit of quantification (0.5 ng/mL) were not used in the calculation of averages.
Pharmacokinetic parameters were calculated from the time course of the plasmaconcentrations. Pharmacokinetic parameters were determined with Phoenix Winnonlin (v6.3) software using a non-compartmental model. The maximum plasma concentration (Cmax) and time to the maximum plasma concentration (Tmax) of the compound of the disclosure were observed from the data. The area under the concentration-time curve (AUC) of the compound of the disclosure was calculated using the trapezoidal formula with calculation to the last quantifiable data point, and to infinity if applicable. Plasma half-life (t½) was calculated from 0.693/slope of the terminal elimination phase. Mean residence time, MRT, was calculated by dividing the area under the moment curve (AUMC) by the AUC. Any samples below the limit of quantitation (0.5 ng/mL) were treated as zero for pharmacokinetic data analysis.
Plasma Sample Extraction and Analysis:
Analytical stock solutions (1.00 mg/mL of the free compound of the disclosure) were prepared in DMSO. Standards were prepared in diluted matrix containing 1 part 10% formic acid and 9 parts Sprague-Dawley rat plasma containing sodium heparin as the anticoagulant (pre-diluted with 1 part of 0.5M citric acid and 9 parts whole blood). Working solutions were prepared in 50:50 acetonitrile:water. Working solutions were then added to plasma to make calibration standards to final concentrations of 1000, 500, 100, 50, 10, 5, 1, and 0.5 ng/mL. Standards contained both the test article and riluzole. Standards were treated identically to the study samples.
Plasma samples were extracted via acetonitrile precipitation on a Tomtec Quadra 96-Model 320 liquid handling system in a 96-well plate format.

[2] = PK in fasted male mice, prodrug and released riluzole (IV, PO); details: mouse, in vivo; for AUC(0-t): read-out: Prodrug AUClast (Mean)
[3] = test system: Stage III and IV melanoma; details: 14 days of treatment, cited from earlier work
[4] = IV, prodrug dose 2.8 mg/Kg, read-out: Compound of the disclosure AUClast
[5] = PO 5 mg/kg, read-out: Prodrug AUClast (Mean)

Structure (SMILES) | AUC(0-t) [1, 4] [ng·h/mL] | clearance ([1]; IV, prodrug dose 2.8 mg/Kg) [mL/min/kg] | Vd ([1]; IV, prodrug dose 2.8 mg/Kg) [L/kg] | half-life ([1]; IV, prodrug dose 2.8 mg/Kg) [h] | also measured
CCNCC(=O)N1CCC[C@@H]1C(=O)Nc1nc2ccc(OC(F)(F)F)cc2s1 [Example 52, (R)-1-N-ethylglycinyl-N-(6-(trifluoromethoxy)benzo [d]thiazol-2-yl) pyrrolidine-2-carboxamide] | 3620 | 9 | 3.55 | 4.75 | 
CC(C)(CN)C(=O)N1CCC[C@H]1C(=O)Nc1nc2ccc(OC(F)(F)F)cc2s1 [Example 59, (S)-1-(3-amino-2,2-dimethylpropanoyl)-N-(6-(trifluoromethoxy)benzo[d]thiazol-2-yl)pyrrolidine-2-carboxamide] | 2770 | 10.7 | 5.11 | 6.2 | 
NCC(=O)NC1(C(=O)Nc2nc3ccc(OC(F)(F)F)cc3s2)CCC1 [Example 82, 1-(2-aminoacetamido)-N-(6-(trifluoromethoxy)benzo[d]thiazol-2-yl)cyclobutane-1-carboxamide] | 663 | 71.3 | 4.14 | 1.03 | 
CNCC(=O)NC1(C(=O)Nc2nc3ccc(OC(F)(F)F)cc3s2)CCC1 [Example 83, 1-(2-(methylamino)acetamido)-N-(6-(trifluoromethoxy)benzo[d]thiazol-2-yl)cyclobutane-1-carboxamide] |  |  |  |  | AUC(0-t) ([1]; IV, prodrug dose 1.8 mg/Kg, read-out: Compound of the disclosure AUClast): 1720 ng·h/mL; clearance ([1]; IV, prodrug dose 1.8 mg/Kg): 11.3 mL/min/kg; Vd ([1]; IV, prodrug dose 1.8 mg/Kg): 5.06 L/kg; half-life ([1]; IV, prodrug dose 1.8 mg/Kg): 5.56 h
CNCC(=O)NC(C)(C)C(=O)Nc1nc2ccc(OC(F)(F)F)cc2s1 [Example 111, 2-methyl-2-(2-(methylamino)acetamido)-N-(6-(trifluoromethoxy)benzo[d]thiazol-2-yl)propanamide] | 4650 | 5.75 | 3.19 | 6.51 | 
CC(C)NCC(=O)NC(C)(C)C(=O)Nc1nc2ccc(OC(F)(F)F)cc2s1 [Example 113, 2-(2-(isopropylamino)acetamido)-2-methyl-N-(6-(trifluoromethoxy)benzo[d]thiazol-2-yl)propanamide] | 2760 | 11.5 | 4.88 | 5.45 | 
CN(CC(=O)Nc1nc2ccc(OC(F)(F)F)cc2s1)C(=O)C(C)(C)CN [Example 118, 3-Amino-N,2,2-trimethyl-N-(2-oxo-2-((6-(trifluoromethoxy)benzo[d]thiazol-2-yl)amino)ethyl)propanamide] | 2480 | 18.8 | 3.35 | 10.4 | 
CN(CC(=O)Nc1nc2ccc(OC(F)(F)F)cc2s1)C(=O)C1(CN)CC1 [Example 119, 1-(aminomethyl)-N-methyl-N-(2-oxo-2-((6-(trifluoromethoxy)benzo[d]thiazol-2-yl)amino)ethyl)cyclopropane-1-carboxamide] | 1720 | 27.2 | 4.7 | 9.3 | 
CN(CC(=O)Nc1nc2ccc(OC(F)(F)F)cc2s1)C(=O)C1(CN)CCCC1 [Example 120, 1-(aminomethyl)-N-methyl-N-(2-oxo-2-((6-(trifluoromethoxy)benzo[d]thiazol-2-yl)amino)ethyl)cyclopentane-1-carboxamide] | 2460 | 19 | 3.63 | 8.66 | 
CN(CC(=O)Nc1nc2ccc(OC(F)(F)F)cc2s1)C(=O)C1(CN)CCCCC1 [Example 121, 1-(aminomethyl)-N-methyl-N-(2-oxo-2-((6-(trifluoromethoxy)benzo[d]thiazol-2-yl)amino)ethyl)cyclohexane-1-carboxamide] | 1290 | 36.3 | 6.15 | 4.83 | 
CNCC(=O)N(C)CC(=O)Nc1nc2ccc(OC(F)(F)F)cc2s1 [Example 122, N-methyl-2-(methylamino)-N-(2-oxo-2-((6-(trifluoromethoxy)benzo[d]thiazol-2-yl)amino)ethyl)acetamide] | 219 | 66.3 | 0.861 | 0.28 | 
CCNCC(=O)N(C)CC(=O)Nc1nc2ccc(OC(F)(F)F)cc2s1 [Example 123, 2-(ethylamino)-N-methyl-N-(2-oxo-2-((6-(trifluoromethoxy)benzo[d]thiazol-2-yl)amino)ethyl)acetamide] | 787 | 59 | 2.04 | 0.68 | 
CC(C)NCC(=O)N(C)CC(=O)Nc1nc2ccc(OC(F)(F)F)cc2s1 [Example 124, 2-(isopropylamino)-N-methyl-N-(2-oxo-2-((6-(trifluoromethoxy)benzo[d]thiazol-2-yl)amino)ethyl)acetamide] | 580 | 81.2 | 2.67 | 0.63 | 
NCC1(C(=O)N2CCC[C@@H]2C(=O)Nc2nc3ccc(OC(F)(F)F)cc3s2)CCCCC1 [Example 173, (R)-1-(1-(aminomethyl)cyclohexane-1-carbonyl)-N-(6-(trifluoromethoxy)benzo[d]thiazol-2-yl)pyrrolidine-2-carboxamide] | 1440 | 22.3 | 9.66 | 6.7 | 
CN(CC(=O)Nc1nc2ccc(OC(F)(F)F)cc2s1)C(=O)CNC(=O)CN [Example 204, 2-Amino-N-{[methyl({[6-(trifluoromethoxy)-1,3-benzothiazol-2-yl]carbamoyl}methyl)carbamoyl]methyl}acetamide] | 232 | 220 | 2.47 | 0.237 | Cmax ([1]; PO 5 mg/kg): 1.84 ng/mL; Tmax ([1]; PO 5 mg/kg): 0.28 h; AUC(0-t) [1, 5]: 0.9 ng·h/mL; AUC(0-inf) ([2]; IV 1 mg/kg, read-out: Prodrug AUCinf (Mean)): 533 ng·h/mL; AUC(0-t) ([2]; IV 1 mg/kg): 532 ng·h/mL; clearance ([2]; IV 1 mg/kg, read-out: Prodrug CL (Mean) (converted)): 32.3 mL/min/kg; half-life ([2]; IV 1 mg/kg, read-out: Prodrug T1/2 (Mean) (converted)): 0.29 h; Vd ([2]; IV 1 mg/kg, read-out: Prodrug Vss (Mean)): 0.46 L/kg; Cmax ([2]; PO 5 mg/kg): 4.71 ng/mL; Tmax ([2]; PO 5 mg/kg): 0.33 h; AUC(0-t) ([2]; PO 5 mg/kg): 3.85 ng·h/mL
CN(CC(=O)Nc1nc2ccc(OC(F)(F)F)cc2s1)C(=O)CNC1CNC1 [Example 212, 2-[(Azetidin-3-yl)amino]-N-methyl-N-({[6-(trifluoromethoxy)-1,3-benzothiazol-2-yl]carbamoyl}methyl)acetamide] |  |  |  |  | AUC(0-t) ([1]; IV, prodrug dose 1.4 mg/Kg, read-out: Compound of the disclosure AUClast): 218 ng·h/mL; clearance ([1]; IV, prodrug dose 1.4 mg/Kg): 104 mL/min/kg; Vd ([1]; IV, prodrug dose 1.4 mg/Kg): 6.21 L/kg; half-life ([1]; IV, prodrug dose 1.4 mg/Kg): 2.43 h
CN(CC(=O)Nc1nc2ccc(OC(F)(F)F)cc2s1)C(=O)CNC1CCNCC1 [Example 216, N-Bethyl-2-[(piperidin-4-yl)amino]-N-({[6-(trifluoromethoxy)-1,3-benzothiazol-2-yl]carbamoyl}methyl)acetamide] | 1910 | 23 | 2.53 | 3.98 | Cmax ([1]; PO 5 mg/kg): 2.96 ng/mL; Tmax ([1]; PO 5 mg/kg): 2.17 h; AUC(0-t) [1, 5]: 16.6 ng·h/mL
CN(CC(=O)Nc1nc2ccc(OC(F)(F)F)cc2s1)C(=O)CNC1COC1 [Example 234, N-Methyl-2-[(oxetan-3-yl)amino]-N-({[6-(trifluoromethoxy)-1,3-benzothiazol-2-yl]carbamoyl}methyl)acetamide] | 3240 | 14.2 | 1.1 | 1.5 | 
Nc1nc2ccc(OC(F)(F)F)cc2s1 [riluzole] |  |  |  |  | Patients with clinical or radiologic evidence of tumor response ([3]; listed as Riluzole): four of 12; Patients with clinical or radiologic evidence of tumor response [3]: four of twelve
